# Measured values as given in patent publication US20020032214A1, “Pharmaceutical composition comprising a compound having anti-xa activity and a platelet aggregation antagonist compound” (priority 1996, published 2002).
# Assay: Template bleeding time in the canine model of unstable angina
# Assay type: in vivo, Mongrel dogs
# Conditions: high-dose of the platelet aggregation antagonist compound, i.v., dogs
# Experimental: Mongrel dogs of either sex (15-21 kg) are anesthetized with sodium pentobarbital (30 mg/kg, i.v., with supplements given as needed), intubated, and ventilated using a Harvard respirator (Harvard Apparatus. S. Natick, Mass.). A tri-lumen catheter (SAFEDWELLplus, Becton Dickinson, Sandy, Utah) is placed in the right femoral vein for the administration of test agents and supplemental anesthesia. The right femoral artery is cannulated for measurement of arterial blood pressure and for obtaining blood samples.
# Thirty dogs are assigned to one of six adjunctive treatment groups. […]
# After consistent CFRs are established for at least 20 minutes, compounds are administered as described above and blood flow is monitored during the one hour infusion period. […] Mean arterial blood pressure, heart rate and EKG are recorded for the duration of the protocol (Grass polygraph, Model 7D, Grass Instruments, Mass.).
# Template bleeding time measurements are obtained at the same time points as the blood samples, as mentioned previously. Template bleeding time is measured after a uniform incision is made on the mucous membrane of the inner upper lip with a Surgicutt® automated incision device (ITC, Edison, N.J.). […] Template bleeding time is measured from the moment of the incision until the blood no longer stained the blotting paper. […]
smiles,measurement,value
"CCCCS(=O)(=O)N[C@@H](Cc1ccc(OCCCCC2CCNCC2)cc1)C(=O)O [BSPBPA, N-(n-butylsulfonyl)-4-(piperidin-4-ylbutyloxy)-L-phenylalanine]",increase in template bleeding time,> 5 fold
